The text below walks through data of publication PMC8125234, “Cardiolipin Stabilizes and Increases Catalytic Efficiency of Carnitine Palmitoyltransferase II and Its Variants S113L, P50H, and Y479F” (International Journal of Molecular Sciences, 2021).

Assay [1] has as its target T1, CPT II variant S113L (Homo sapiens, UniProt P23786, S113L).
T1 construct: made in house; host or cells: Escherichia coli BL21Gold DE
T1 sequence (P23786 26-658 S113L): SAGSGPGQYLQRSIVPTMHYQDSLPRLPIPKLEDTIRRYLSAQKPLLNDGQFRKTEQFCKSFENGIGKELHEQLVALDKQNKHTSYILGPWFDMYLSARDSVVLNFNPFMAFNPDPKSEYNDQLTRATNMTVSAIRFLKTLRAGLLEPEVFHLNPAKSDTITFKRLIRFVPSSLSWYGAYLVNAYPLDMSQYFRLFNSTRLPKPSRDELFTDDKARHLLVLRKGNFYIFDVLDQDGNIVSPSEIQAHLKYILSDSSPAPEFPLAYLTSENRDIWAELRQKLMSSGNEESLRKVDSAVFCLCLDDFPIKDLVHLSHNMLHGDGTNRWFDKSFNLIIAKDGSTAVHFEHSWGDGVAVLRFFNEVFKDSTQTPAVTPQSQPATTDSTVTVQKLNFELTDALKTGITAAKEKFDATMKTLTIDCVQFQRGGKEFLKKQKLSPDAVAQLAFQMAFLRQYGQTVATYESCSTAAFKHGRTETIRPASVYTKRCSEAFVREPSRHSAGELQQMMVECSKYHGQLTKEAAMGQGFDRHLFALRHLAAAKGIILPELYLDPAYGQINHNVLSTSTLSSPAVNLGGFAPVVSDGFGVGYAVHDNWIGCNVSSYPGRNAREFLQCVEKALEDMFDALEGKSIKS
On the set-up: method as in PMID 13534673. As to conditions: cited from earlier work.

For assay [2], the target named is T2, CPT II variant P50H (Homo sapiens, UniProt P23786, P50H).
T2 construct: made in house; host or cells: Escherichia coli BL21Gold DE
T2 sequence (P23786 26-658 P50H): T1 sequence (P23786 26-658 S113L) with P25H, L88S
Put plainly: Lipid binding assay (membrane lipid strips). As to conditions: 0.4 mg enzyme, 100 pmol lipid spots. On the procedure:
(§1) Direct interaction of CPT II WT and variants with phospholipids of the mitochondrial membrane was assessed using membrane lipid strips (Echelon Biosciences, Salt Lake City, Utah, USA). The membrane was spotted with 100 pmol of various cell membrane lipids. The assay was performed following manufacturer’s instructions with some modifications explained in the following. At first, the membrane was washed twice in phosphate buffered saline (PBS). After 1 h incubation with blocking solution (3% BSA fatty acid-free in PBS) at room temperature, the membrane was incubated with purified CPT II WT or variant (final amount 0.4 mg protein) for 2 h at 4 °C. After three washing steps, a-His-Probe (H3) mouse monoclonal antibody (Santa Cruz Biotech, Santa Cruz, CA, USA, 1:1000 dilution in PBS containing 3% BSA) was added to the membrane over night at 4 °C. The membrane was washed three times with PBS and incubated with mouse IgG horseradish peroxidase-linked whole antibody (from sheep, Amersham, Little Chalfont, Buckinghamshire, UK) for 1 h at 4 °C. The interaction was visualized by ECL Western blotting detection reagents (Amersham, Little Chalfont, Buckinghamshire, UK).

Assay [3] concerns the target T3, CPT II variant Y479F (Homo sapiens, UniProt P23786, Y479F).
T3 construct: made in house; host or cells: Escherichia coli BL21Gold DE
T3 sequence (P23786 26-658 Y479F): T1 sequence (P23786 26-658 S113L) with L88S, Y454F
The assay can be described thus: Lipid binding assay (membrane lipid strips). As to conditions: 0.4 mg enzyme, 100 pmol lipid spots. On the procedure:
as §1

In assay [4] the target is T1, CPT II variant S113L. The assay can be described thus: Lipid binding assay (membrane lipid strips). As to conditions: 0.4 mg enzyme, 100 pmol lipid spots. On the procedure:
as §1

Positions count from the first letter of the chain named. “Also recorded” adds a separate entry of the source.

For Cardiolipin [CL], the “Effect of CL on enzyme activity” value in assay [1] is “no benefit”. Also, the “Signal for interaction on membrane lipid strips” value in assay [2] is “lowest; also recorded: clearly proven”; in assay [3] it was “clearly proven”; in assay [4] it was “clearly proven”.
